In patent publication US12286429B2, “5-oxo-1,2,3,5,8,8a-hexahydroindolizine-3-carboxamide derivatives useful as a factor XIa inhibitors” (Janssen Pharmaceutica NV, priority 2021, dated 2025):

Legend:
human plasma kallikrein = human plasma kallikrein (Homo sapiens, UniProt P03952); assay: Kallikrein inhibition assay utilizing a quenched AMC peptide substrate (FLINT); type: biochemical; conditions: 11-point, 3-fold serial dilution, top 1 μM; 30 min preincubation; 2 nM kallikrein; 50 μM Z-Gly-Pro-Arg-AMC; kinetic reads over 30 min
Sequence of human plasma kallikrein (P03952 391-638 limits assumed): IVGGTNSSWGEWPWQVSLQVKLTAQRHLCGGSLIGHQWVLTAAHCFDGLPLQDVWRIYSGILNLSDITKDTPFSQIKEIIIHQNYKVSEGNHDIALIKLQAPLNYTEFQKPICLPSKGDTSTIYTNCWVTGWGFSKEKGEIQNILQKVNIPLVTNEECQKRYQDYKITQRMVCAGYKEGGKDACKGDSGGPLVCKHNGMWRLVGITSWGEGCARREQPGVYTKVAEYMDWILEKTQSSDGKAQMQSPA
Sequence of human plasma kallikrein (P03952 20-390 partner limits assumed): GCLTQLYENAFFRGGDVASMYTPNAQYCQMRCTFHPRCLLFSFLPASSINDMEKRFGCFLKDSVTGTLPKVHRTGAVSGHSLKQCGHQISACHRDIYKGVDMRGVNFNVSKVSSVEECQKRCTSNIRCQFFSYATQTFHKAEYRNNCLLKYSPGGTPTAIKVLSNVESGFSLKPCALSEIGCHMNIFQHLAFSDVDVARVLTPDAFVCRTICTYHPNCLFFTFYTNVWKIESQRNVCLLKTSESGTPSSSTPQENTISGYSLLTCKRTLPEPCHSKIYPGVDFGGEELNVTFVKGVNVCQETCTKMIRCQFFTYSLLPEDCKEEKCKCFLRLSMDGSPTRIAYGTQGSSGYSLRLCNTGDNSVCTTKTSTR
Procedure, shortened: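 Human plasma kallikrein (2 nM final) was pre-incubated 30 min at room temperature with compound (11-point 3-fold series, top 1 μM, 2% DMSO) in Tris pH 7.5, NaCl, CaCl2, BSA, CHAPS buffer. Reaction started with 50 μM Z-Gly-Pro-Arg-AMC (KM 40 μM), and fluorescence (340/440 nm) was read kinetically over 30 min. IC50 came from a 4-parameter logistic fit.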

Factor XIa = Factor XIa (Homo sapiens, UniProt P03951); assay: Factor XIa inhibition assay utilizing a fluorophore-quencher pair peptide substrate (FLINT); type: biochemical; conditions: 11-point, 3-fold serial dilution, top 100 nM; 30 min preincubation; 15 μM 5Fam-KLTRAETV-K5Tamra substrate; kinetic reads over 30 min; read-out: FXIa Inhibition IC50
Sequence of Factor XIa (P03951 388-625 limits assumed): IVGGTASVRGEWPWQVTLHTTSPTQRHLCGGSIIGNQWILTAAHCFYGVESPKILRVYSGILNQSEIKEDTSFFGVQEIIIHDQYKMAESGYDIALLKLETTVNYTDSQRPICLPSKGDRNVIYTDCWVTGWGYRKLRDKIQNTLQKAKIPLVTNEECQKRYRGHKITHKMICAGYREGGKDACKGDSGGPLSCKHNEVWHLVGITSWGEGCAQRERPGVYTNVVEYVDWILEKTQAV
Sequence of Factor XIa (P03951 19-387 partner limits assumed): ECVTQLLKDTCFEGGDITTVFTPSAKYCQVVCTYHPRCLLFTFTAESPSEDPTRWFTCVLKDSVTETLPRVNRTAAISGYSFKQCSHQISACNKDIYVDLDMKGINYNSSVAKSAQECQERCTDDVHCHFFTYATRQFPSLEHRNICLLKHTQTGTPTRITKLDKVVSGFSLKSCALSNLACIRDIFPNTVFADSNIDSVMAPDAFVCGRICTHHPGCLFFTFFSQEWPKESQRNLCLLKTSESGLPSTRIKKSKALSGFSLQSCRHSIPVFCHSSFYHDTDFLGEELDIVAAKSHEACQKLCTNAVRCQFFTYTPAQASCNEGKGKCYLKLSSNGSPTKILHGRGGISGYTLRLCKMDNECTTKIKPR
Procedure, shortened: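 FXIa ([…]) preincubated 30 min with compound (11-point, 3-fold, top 100 nM, 2% DMSO) in Tris pH 7.5, NaCl, CaCl2, BSA, CHAPS; 15 μM 5Fam-KLTRAETV-K5Tamra substrate then added. Fluorescence (485/520 nm) read kinetically over 30 min at room temperature; IC50 by 4-parameter fit.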

IC50 (human plasma kallikrein) | IC50 (Factor XIa) | Structure (SMILES)
6.4 nM | 0.4 nM | O=C(Nc1ccc(-c2nc(=O)o[nH]2)c(F)c1)[C@@H]1CCC2CC(c3c(-n4cnnn4)ccc(Cl)c3F)=CC(=O)N21 (single isomer, unassigned) [ID No. 35, (3S,8aR*)-7-[3-Chloro-2-fluoro-6-(tetrazol-1-yl)phenyl]-N-[3-fluoro-4-(5-oxo-2H-1,2,4-oxadiazol-3-yl)phenyl]-5-oxo-2,3,8,8a-tetrahydro-1H-indolizine-3-carboxamide]
52.6 nM | 8.9 nM | Nc1noc2cc(NC(=O)[C@@H]3CCC4CC(c5c(-n6cnnn6)ccc(Cl)c5F)=CC(=O)N43)ccc12 (single isomer, unassigned) [ID No. 61, (3S,8aS*)—N-(3-Amino-1,2-benzoxazol-6-yl)-7-[3-chloro-2-fluoro-6-(tetrazol-1-yl)phenyl]-5-oxo-2,3,8,8a-tetrahydro-1H-indolizine-3-carboxamide]
109 nM | > 50 nM | CC(C)(O)c1nc2cc(NC(=O)[C@@H]3CCC4CC(c5c(-n6cnnn6)ccc(Cl)c5F)=CC(=O)N43)ccc2s1 (mixture of isomers) [compound 90]
11.2 nM | 1.8 nM | O=C(Nc1ccc(-c2n[nH]c(=O)o2)cc1)[C@@H]1CCC2CC(c3c(-n4cnnn4)ccc(Cl)c3F)=CC(=O)N21 (mixture of isomers) [ID No. 75, (3S)-7-[3-Chloro-2-fluoro-6-(tetrazol-1-yl)phenyl]-5-oxo-N-[4-(2-oxo-3H-1,3,4-oxadiazol-5-yl)phenyl]-2,3,8,8a-tetrahydro-1H-indolizine-3-carboxamide]

Further lines, the molecule ahead of its results:

Structure (SMILES) | IC50 (human plasma kallikrein) | IC50 (Factor XIa)
Nc1ccc2cc(NC(=O)[C@@H]3CC[C@@H]4CC(c5c(-n6cnnn6)ccc(Cl)c5F)=CC(=O)N43)ccc2n1 [ID No. 6, (3S,8aR)—N-(2-Aminoquinolin-6-yl)-7-(3-chloro-2-fluoro-6-(1H-tetrazol-1-yl)phenyl)-5-oxo-1,2,3,5,8,8a-hexahydroindolizine-3-carboxamide] | 14.3 nM | 8 nM
CC1C(=O)Nc2c(NC(=O)[C@@H]3CC[C@@H]4CC(c5c(-n6cc(C(F)(F)F)nn6)ccc(Cl)c5F)=CC(=O)N43)cccc21 (stereo partly shown) [compound 102] | 570 nM | > 50 nM
O=C(Nc1ccc2c(c1)CN(O)C2=O)[C@@H]1CCC2CC(c3c(-n4cnnn4)ccc(Cl)c3F)=CC(=O)N21 (mixture of isomers) [ID No. 30, (3S)-7-(3-Chloro-2-fluoro-6-(1H-tetrazol-1-yl)phenyl)-N-(2-hydroxy-1-oxoisoindolin-5-yl)-5-oxo-1,2,3,5,8,8a-hexahydroindolizine-3-carboxamide] | 128 nM | > 95 nM
O=C(Nc1ccc(-c2ncc[nH]2)cc1)[C@@H]1CCC2CC(c3c(-n4cnnn4)ccc(Cl)c3F)=CC(=O)N21 (mixture of isomers) [ID No. 74, (3S)-7-[3-Chloro-2-fluoro-6-(tetrazol-1-yl)phenyl]-N-[4-(1H-imidazol-2-yl)phenyl]-5-oxo-2,3,8,8a-tetrahydro-1H-indolizine-3-carboxamide] | 40.7 nM | 2 nM
O=C(Nc1ccc2ncc(F)cc2c1)[C@@H]1CC[C@@H]2CC(c3c(-n4cnnn4)ccc(Cl)c3F)=CC(=O)N21 [ID No. 10, (3S,8aR)-7-(3-Chloro-2-fluoro-6-(1H-tetrazol-1-yl)phenyl)-N-(3-fluoroquinolin-6-yl)-5-oxo-1,2,3,5,8,8a-hexahydroindolizine-3-carboxamide] | 22.5 nM | 10.8 nM
CO[C@@H]1C[C@@H](C(=O)Nc2ccc3n[nH]cc3c2)N2C(=O)C=C(c3c(-n4cnnn4)ccc(Cl)c3F)CC12 (mixture of isomers) [ID No. 43, (1R,3S)-7-[3-Chloro-2-fluoro-6-(tetrazol-1-yl)phenyl]-N-(2H-indazol-5-yl)-1-methoxy-5-oxo-2,3,8,8a-tetrahydro-1H-indolizine-3-carboxamide] | 31.3 nM | 11 nM
CN(C)c1ccnc2ccc(NC(=O)C3CCC4CC(c5c(-n6cc(Cl)nn6)ccc(Cl)c5F)=CC(=O)N43)cc12 (stereo not shown) [compound 88] | 160 nM | > 50 nM
